Data reported in PMC4738305, “Metabolism and Disposition of Aditoprim in Swine, Broilers, Carp and Rats” (Scientific Reports, 2016).
Where two headings read alike, the source gives them in different places.

Assays:
[1] = Concentration and elimination of ADP and its metabolites in liver, kidney, muscle, fat/skin after oral ^3H-ADP for 7 d; type: in vivo, carp; conditions: for concentration at 0.25 d / concentration at 1 d / concentration at 3 d / concentration at 7 d: carp, oral; for half-life: po
Description: (§1) A total of 36 animals from each species (swine n = 24) were randomly assigned to six equal treatment groups and administered a single daily dose of ^3 H-ADP at 5 mg/kg b. w. (0.1 Ci/g) through oral gavage for 7 consecutive days. All the animals were housed on the basis of their group in the cages or aquaria throughout the whole study period. A group of animals was slaughtered through exsanguination under diethyl ether inhalation of anesthesia in the period of 6 h, 1, 3, 7, 14, and 21 d after the administration. The blood samples were immediately collected into the heparinized tubes and was centrifuged at 1920 × g at 4 °C for 10 min to obtain the plasma. The tissues from the heart, liver, spleen, lung, kidney, craw (broilers), stomach, intestine, fat, skin, muscle, thymus, pancreas, bile, bladder, hair (scale for carp), genital gland, adrenal glands, swim bladder (carp), brain, lymph, and bursa (broilers) were carefully excised and collected. The tissues were thoroughly rinsed with the deionized water to remove the residuary blood, blotted to dryness, and finally to perform the homogenization. In order to avoid cross-contamination the dissecting instruments were washed during the tissue procurements. The blank tissues were collected in order to provide control matrices. The total radioactivity levels in each sample were determined through LSC. The samples extracted from the plasma, bile, and tissues of the liver, kidney, muscle, and fat/skin were analyzed through LC/MS-IT-TOF and v. ARC radiometric detection for metabolite profiling. The blank samples were used as control to determine the background radioactivity or the endogenous nondrug-related ions observed within respective matrices or their extracts.
(§2) The feces and tissues (2 g) were diluted with a mixture of methanol and chloroform (1:3, v:v; 2 mL/g homogenate). This procedure was carried out in a fume hood for the safety aspects. The pH value was adjusted to 9.0 with NH4OH. The mixture was vortexed and sonicated for 5 min and 10 min, respectively, and finally the samples were centrifuged at 7690 × g for 10 min. The supernatant was aspirated and then transferred into a new centrifuge tube. The obtained pellet was again subjected to the same process of vortex, ultrasonication, extraction, and centrifugation. The combined supernatant was concentrated under a stream of nitrogen in a water bath at 40 °C. The residue was reconstituted with 0.3 mL of methanol–water (1:9, v:v) before the injection into the LC-v. ARC/MS-IT-TOF system for analysis.
(§3) ADP and its metabolites in the prepared samples were determined with a v. ARC radiometric detector and a hybrid IT/TOF mass spectrometer connected to the HPLC system (Shimadzu Corp., Kyoto, Japan). The LC system was equipped with a solvent delivery pump (LC-20AD), an auto-sampler (SIL-20AC), a degasser (DGU-20 A 3), a photodiode array detector (SPD-M20A), a communication base module (CBM-20 A), and a column oven (CTO-20AC). The chromatographic separation was achieved by using an Agilent extend-C18 column (2.1 mm × 150 mm, 5 μm) with a gradient mobile phase of A (0.01% ammonia and 5 mM ammonium acetate in water) and B (methanol) at a flow rate of 0.2 mL/min. The column temperature was maintained at 35 °C. Various HPLC methods were performed because of the large number of different metabolites to be analyzed. For the porcine sample, method 1 started at 5% B and increased to 20% B over 35 min, then to 55% B by 60 min, followed by re-equilibration for another 10 min. For the remaining samples, method 2 started at 10% B and increased to 60% B over 30 min, subsequently was maintained at 60% B for an additional 10 min, and then changed to 90% B over 2 min and maintained for 2 min. Afterwards, a re-equilibration step (decreased to 10% B over 1 min and maintained at 10% B for additional 9 min) was followed. For each matrix, more than 98% of the radioactivity injected into the column was eluted during the running time of the gradient program. […]

[2] = as above; type: in vivo, rats; conditions: for half-life: po; for concentration at 0.25 d / concentration at 1 d / concentration at 3 d / concentration at 7 d: oral
Description: as §1, §2, §3

[3] = rat kidney, after 5 mg/kg b. w. for 7 days, read-out: t1/2 of the individual compound (converted)
[4] = rat liver, after 5 mg/kg b. w. for 7 days, read-out: t1/2 of the individual compound (converted)

CNc1c(OC)cc(Cc2cnc(N)nc2N)cc1OC [A1, N-monodesmethyl-ADP]
concentration at 0.25 d ([1]; kidney, 5 mg/kg b.w.): 7990 ± 1650 ng/g | concentration at 1 d ([1]; kidney, 5 mg/kg b.w.): 1730 ± 330 ng/g | concentration at 3 d ([1]; kidney, 5 mg/kg b.w.): 820 ± 150 ng/g | concentration at 7 d ([1]; kidney, 5 mg/kg b.w.): 380 ± 30 ng/g | concentration at 0.25 d ([1]; liver, 5 mg/kg b. w.): 1930 ± 250 ng/g | concentration at 1 d ([1]; liver, 5 mg/kg b. w.): 770 ± 130 ng/g | concentration at 3 d ([1]; liver, 5 mg/kg b. w.): 160 ± 30 ng/g | concentration at 7 d ([1]; liver, 5 mg/kg b. w.): 20 ng/g | concentration at 0.25 d ([1]; muscle, 5 mg/kg b.w.): 300 ± 80 ng/g | concentration at 1 d ([1]; muscle, 5 mg/kg b.w.): 270 ± 70 ng/g | concentration at 3 d ([1]; muscle, 5 mg/kg b.w.): 100 ± 20 ng/g | concentration at 0.25 d ([1]; skin, 5 mg/kg b. w.): 550 ± 90 ng/g | concentration at 1 d ([1]; skin, 5 mg/kg b. w.): 450 ± 130 ng/g | concentration at 3 d ([1]; skin, 5 mg/kg b. w.): 140 ± 20 ng/g | concentration at 7 d ([1]; skin, 5 mg/kg b. w.): 50 ± 10 ng/g | half-life ([1]; carp kidney, after 5 mg/kg b. w. for 7 days, read-out: t1/2 of the individual compound (converted)): 67.4 h | half-life ([1]; carp liver, after 5 mg/kg b. w. for 7 days, read-out: t1/2 of the individual compound (converted)): 26.2 h | half-life ([1]; carp muscle, after 5 mg/kg b. w. for 7 days, read-out: t1/2 of the individual compound (converted)): 49.2 h | half-life ([1]; carp skin, after 5 mg/kg b. w. for 7 days, read-out: t1/2 of the individual compound (converted)): 47.8 h | half-life ([1]; tissues (liver, kidney, muscle, fat/skin), 5 mg/kg, carp tissues, read-out: t1/2 of the individual compound, range over tissues): 26.2 to 67.4 h | half-life [2, 3]: 50.6 h | half-life [2, 4]: 64.6 h | concentration at 0.25 d ([2]; rat, fat, 5 mg/kg b. w.): 70 ± 20 ng/g | concentration at 0.25 d ([2]; rat, kidney, 5 mg/kg b.w.): 2650 ± 970 ng/g | concentration at 1 d ([2]; rat, kidney, 5 mg/kg b.w.): 320 ± 120 ng/g | concentration at 3 d ([2]; rat, kidney, 5 mg/kg b.w.): 120 ± 20 ng/g | concentration at 7 d ([2]; rat, kidney, 5 mg/kg b.w.): 40 ± 10 ng/g | concentration at 0.25 d ([2]; rat, liver, 5 mg/kg b. w.): 1940 ± 580 ng/g | concentration at 1 d ([2]; rat, liver, 5 mg/kg b. w.): 390 ± 90 ng/g | concentration at 3 d ([2]; rat, liver, 5 mg/kg b. w.): 180 ± 40 ng/g | concentration at 7 d ([2]; rat, liver, 5 mg/kg b. w.): 80 ± 10 ng/g | concentration at 0.25 d ([2]; rat, muscle, 5 mg/kg b.w.): 250 ± 100 ng/g | concentration at 1 d ([2]; rat, muscle, 5 mg/kg b.w.): 140 ± 30 ng/g | half-life ([2]; rat, tissues (liver, kidney, muscle, fat/skin), 5 mg/kg, rats tissues, read-out: t1/2 of the individual compound, range over tissues): 50.6 to 64.6 h

COc1cc(Cc2cnc(N)nc2N)cc(OC)c1N [A2, N-didesmethyl-ADP]
concentration at 0.25 d ([1]; kidney, 5 mg/kg b.w.): 780 ± 160 ng/g | concentration at 1 d ([1]; kidney, 5 mg/kg b.w.): 60 ± 10 ng/g | concentration at 0.25 d ([1]; liver, 5 mg/kg b. w.): 440 ± 60 ng/g | concentration at 1 d ([1]; liver, 5 mg/kg b. w.): 240 ± 40 ng/g | concentration at 0.25 d ([1]; skin, 5 mg/kg b. w.): 70 ± 10 ng/g | concentration at 1 d ([1]; skin, 5 mg/kg b. w.): 50 ± 10 ng/g | half-life [2, 3]: 16.8 h | half-life [2, 4]: 38.6 h | concentration at 0.25 d ([2]; rat, kidney, 5 mg/kg b.w.): 370 ± 130 ng/g | concentration at 1 d ([2]; rat, kidney, 5 mg/kg b.w.): 120 ± 30 ng/g | concentration at 3 d ([2]; rat, kidney, 5 mg/kg b.w.): 20 ng/g | concentration at 0.25 d ([2]; rat, liver, 5 mg/kg b. w.): 230 ± 60 ng/g | concentration at 1 d ([2]; rat, liver, 5 mg/kg b. w.): 120 ± 20 ng/g | concentration at 3 d ([2]; rat, liver, 5 mg/kg b. w.): 60 ± 20 ng/g | concentration at 0.25 d ([2]; rat, muscle, 5 mg/kg b.w.): 40 ± 10 ng/g
